Source: patent publication US12502382B2, “EPAC1 inhibitors for the treatment of idiopathic pulmonary fibrosis” (INSERM (Institut National de la Santé et de la Recherche …, priority 2019, dated 2025)

Columns and labels:
[1] = tested on: Normal human lung fibroblast (NHLF); experiment: BrdU proliferation assay in normal human lung fibroblasts; assay type: cell-based; conditions: TGFβ treatment and serum stimulation (0.1% or 5% FBS), 48 hours, inhibitor 20 μM
Procedure: (§1) Cell Culture. Normal human lung fibroblast (NHLF) and lung fibroblast from IPF patients were purchased from Lonza, Inc. (Allendale, NJ) and cultured as recommended in FGM-2 medium supplemented with 5% fetal bovine serum (FBS) in 5% CO2 at 37° C. and passaged at the confluence. All the cell lines were tested by the manufacturers and negative for HIV-1, HBV, HCV, mycoplasma, bacteria, yeast, and fungi.
(§2) Pharmacological treatment. Cells were seeded at 250,000 cells/well in 6-well plates and maintained in a 37° C. incubator with 5% CO2 for 24 hrs prior to use. Cells were treated with TGF-β1 (2 ng/mL; 48 hrs) alone or in combination with either Epac1 inhibitor CE3F4 (20 μM; 48 hrs) or AM-001 (20 μM; 48 hrs).
(§3) The proliferation of NHLFs was measured by 5-bromo-2′-deoxyuridine (BrdU) incorporation using the Cell Proliferation ELISA, BrdU (colorimetric) assay (Roche, Indianapolis, IN), according to the manufacturer's instructions.

[2] = tested on: fibrosis markers (COL1, COL3, CTGF, TGFβ) in NHLF cells; experiment: qPCR of TGF-β1-induced fibrosis marker mRNA in NHLF; assay type: cell-based, human; conditions: TGF-β1 2 ng/mL 48 hrs, inhibitor 20 μM 48 hrs
Procedure: as §1, §2
(§4) Total RNA was isolated using TRIzol™ (Invitrogen) and purified using RNeasy mini columns (Qiagen), according to the manufacturer's instructions. The cDNA synthesis kit (Applied Biosystems, Foster City, CA) was used to synthesized cDNA, as described by the manufacturer. Quantitative RT-PCR was performed using the PerfeCTa SYBR™ Green FastMix kit (Quantabio, Beverly, MA) and specific primers against the indicated genes, according to the manufacturer's instructions. Fold changes in gene expression were determined using the relative comparison method with normalization to GAPDH as an internal loading control.

[3] = tested on: mouse model of bleomycin-induced pulmonary fibrosis; experiment: Hemodynamics and RV hypertrophy in bleomycin-induced pulmonary fibrosis mouse model; assay type: in vivo; conditions: 10 mg/kg i.p. every alternate day for 2 weeks
Procedure: Intratracheal bleomycin animal model. […] Animals were anesthetized by IP injection of xylazine/ketamine and were secured to a tray in the supine position. After intubation, the board was tilted at 45 degrees, and the IA-1C Microsprayer tip (PennCentury, Wyndmoor, PA) was inserted through the lumen of the angiocath. Animals were subjected to a single intratracheal injection of BLM (50 μL; 4 U/Kg) for 28 days.
Heart hemodynamic studies. The mice were anesthetized with (2-4%) isoflurane, intubated via tracheotomy, and mechanically ventilated with 1-2% isoflurane and oxygen (tidal volume, 6 mL/kg; respiratory rate, 100 breaths per minute). The thoracic cavity was opened, and the organs were accessed through a sternotomy. Once the pericardium was opened, and the heart was fully accessible, an ultrasonic flow probe (flow probe 2.5S176; Transonic Systems Inc., Ithaca, NY) was inserted into the RV to collect the right ventricular systolic pressure (RVSP). Hemodynamic data were recorded using a Scisense PV Control Unit (Scisense, Ontario, Canada).
Right Ventricular Weight Measurement. After the hemodynamic data were collected, the mice were harvested to collect the heart and lungs. […] The Fulton Index was calculated by the weight ratio of the RV weight to the LV plus septum weight (RV weight/LV+Septum weight) to specifically illustrate the RV hypertrophy. […]

[4] = tested on: mouse model of bleomycin-induced pulmonary fibrosis; experiment: Histology (Masson's trichrome, H&E, WGA) in bleomycin-induced pulmonary fibrosis mouse model; assay type: in vivo
Procedure: Intratracheal bleomycin animal model. […] Animals were anesthetized by IP injection of xylazine/ketamine and were secured to a tray in the supine position. After intubation, the board was tilted at 45 degrees, and the IA-1C Microsprayer tip (PennCentury, Wyndmoor, PA) was inserted through the lumen of the angiocath. Animals were subjected to a single intratracheal injection of BLM (50 μL; 4 U/Kg) for 28 days. The pharmacological inhibitor of Epac1, AM-001, was injected intraperitoneally every alternate day (10 mg/kg) for 2 weeks.
Hematoxylin & Eosin and Masson's trichrome staining. Lung tissue was harvested, inflated with PBS/OCT (50:50), and fixed (frozen in −80° C.) in OCT. Sections were cut to 8 μm and adhered to colorfrost glass slides (ThermoFisher). Lung tissue sections were stained with hematoxylin and eosin (H&E) and Masson's trichrome (Sigma-Aldrich) and visualized using light microscopy. The medial thickness and collagen deposition were then quantified using ImageJ software.
RV sections were fixed in 1% paraformaldehyde (PFA) and stained using fluorescence-tagged wheat germ agglutinin (WGA) (Invitrogen) overnight at 4° C. and imaged with on Zeiss Observer Z.1 microscope (Carl Zeiss) at ×160 magnification. The outlines of cardiac myocytes were traced, and the cardiomyocyte area was calculated using ImageJ software.

[5] = tested on: mouse model of bleomycin-induced pulmonary fibrosis; experiment: qPCR of marker mRNA in lung and RV tissues of bleomycin-challenged mice; assay type: in vivo
Procedure: Intratracheal bleomycin animal model. All of the animal experiments and handling were performed in accordance with NIH Guide for the Care and Use of Laboratory Animals. Animals were anesthetized by IP injection of xylazine/ketamine and were secured to a tray in the supine position. After intubation, the board was tilted at 45 degrees, and the IA-1C Microsprayer tip (PennCentury, Wyndmoor, PA) was inserted through the lumen of the angiocath. Animals were subjected to a single intratracheal injection of BLM (50 μL; 4 U/Kg) for 28 days. The pharmacological inhibitor of Epac1, AM-001, was injected intraperitoneally every alternate day (10 mg/kg) for 2 weeks.
as §4
Using a therapeutic strategy, mice were randomly allocated to a sham control-treated group that received intratracheal saline and PF group that received a single intratracheal aerosolization of BLM (4 U/kg). After 2 weeks, the BLM-challenged group was randomly assigned to receive either a vehicle or the Epac1 inhibitor AM-001 for two weeks (FIG. 4A). Vehicle or AM-001 was injected intraperitoneally every alternate day (10 mg/kg) for 2 weeks. […] To further investigate the potential therapeutic effect of Epac1 inhibition in PF, the interstitial fibrosis level and the vascular remodeling were next evaluated by histological analysis after 2 weeks of treatment. […] The inventors also measured by RT-qPCR the expression of several markers of fibrosis in the lung samples.

IPF fibroblasts [6] = experiment: BrdU proliferation assay in IPF fibroblasts; assay type: cell-based, human; conditions: basal condition, preliminary data
Procedure: as §1, §3

IPF fibroblasts [7] = experiment: qPCR of IL-6, α-SMA and FOXO3 mRNA in IPF fibroblasts; assay type: cell-based, human; conditions: 20 μM for 48 h
Procedure: as §1, §4

IPF fibroblasts [8] = experiment: Immunoblot of phospho-SMAD2/3, phospho-STAT3, phospho-AKT in IPF fibroblasts; assay type: cell-based, human; conditions: IPF fibroblast
Procedure: as §1
SDS-PAGE and Immunoblot Analysis. Protein lysates were prepared using RIPA lysis buffer (Boston BioProducts) containing a Protease/Phosphatase Inhibitor Cocktail (Pierce). After centrifugation for 20 min at 15000×g, the protein concentrations were determined using a bicinchoninic acid (BCA) assay (Sigma-Aldrich). The proteins were then separated by SDS-polyacrylamide gel electrophoresis and transferred to polyvinylidene difluoride membranes. The membranes were blocked with 5% Skim milk and hybridized overnight at 4° C. with the following primary antibodies: Epac1 (Cell signaling), phospho-SMAD2/3 (Cell signaling), phospho-STAT3 (Cell signaling), phospho-AKT (Cell signaling), Total AKT (Cell signaling), and GAPDH (Thermofisher). The membranes were then incubated with the appropriate secondary HRP-conjugated antibody (Cell signaling) for 1 hour, and the blots were developed using the ECL System (Thermofisher).

Epac1 = molecular target: T1, Epac1 (Homo sapiens, UniProt O95398); conditions: Laudette et al. 2019; cited from earlier work
T1 sequence (O95398 1-923): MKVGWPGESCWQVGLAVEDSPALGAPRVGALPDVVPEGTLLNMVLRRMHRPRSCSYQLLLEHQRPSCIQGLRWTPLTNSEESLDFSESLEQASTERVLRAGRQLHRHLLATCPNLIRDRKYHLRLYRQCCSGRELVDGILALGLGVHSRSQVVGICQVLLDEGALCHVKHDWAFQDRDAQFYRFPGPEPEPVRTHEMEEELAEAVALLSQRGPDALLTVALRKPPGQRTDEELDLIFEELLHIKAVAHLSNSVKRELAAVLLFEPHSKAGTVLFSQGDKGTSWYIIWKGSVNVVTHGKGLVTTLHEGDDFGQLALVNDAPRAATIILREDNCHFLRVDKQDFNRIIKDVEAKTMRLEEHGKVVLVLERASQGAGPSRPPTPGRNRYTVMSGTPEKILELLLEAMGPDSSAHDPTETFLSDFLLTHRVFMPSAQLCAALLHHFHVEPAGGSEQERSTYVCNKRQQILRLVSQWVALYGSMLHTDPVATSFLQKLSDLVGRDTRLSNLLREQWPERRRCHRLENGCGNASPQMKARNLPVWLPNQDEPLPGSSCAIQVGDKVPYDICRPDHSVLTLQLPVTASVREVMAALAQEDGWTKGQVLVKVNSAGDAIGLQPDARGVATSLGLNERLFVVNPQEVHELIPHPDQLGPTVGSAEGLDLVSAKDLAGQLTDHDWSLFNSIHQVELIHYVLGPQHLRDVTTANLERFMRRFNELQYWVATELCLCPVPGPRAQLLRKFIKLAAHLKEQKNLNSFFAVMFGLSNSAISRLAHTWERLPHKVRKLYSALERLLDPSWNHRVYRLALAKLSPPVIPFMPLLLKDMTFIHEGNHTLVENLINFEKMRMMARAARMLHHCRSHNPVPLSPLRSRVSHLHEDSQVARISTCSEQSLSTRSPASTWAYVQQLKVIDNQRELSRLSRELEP

Epac2 = Epac2 (Homo sapiens, UniProt Q8WZA2); conditions: Laudette et al. 2019; cited from earlier work
Chain of Epac2 (Q8WZA2 whole entry, species assumed): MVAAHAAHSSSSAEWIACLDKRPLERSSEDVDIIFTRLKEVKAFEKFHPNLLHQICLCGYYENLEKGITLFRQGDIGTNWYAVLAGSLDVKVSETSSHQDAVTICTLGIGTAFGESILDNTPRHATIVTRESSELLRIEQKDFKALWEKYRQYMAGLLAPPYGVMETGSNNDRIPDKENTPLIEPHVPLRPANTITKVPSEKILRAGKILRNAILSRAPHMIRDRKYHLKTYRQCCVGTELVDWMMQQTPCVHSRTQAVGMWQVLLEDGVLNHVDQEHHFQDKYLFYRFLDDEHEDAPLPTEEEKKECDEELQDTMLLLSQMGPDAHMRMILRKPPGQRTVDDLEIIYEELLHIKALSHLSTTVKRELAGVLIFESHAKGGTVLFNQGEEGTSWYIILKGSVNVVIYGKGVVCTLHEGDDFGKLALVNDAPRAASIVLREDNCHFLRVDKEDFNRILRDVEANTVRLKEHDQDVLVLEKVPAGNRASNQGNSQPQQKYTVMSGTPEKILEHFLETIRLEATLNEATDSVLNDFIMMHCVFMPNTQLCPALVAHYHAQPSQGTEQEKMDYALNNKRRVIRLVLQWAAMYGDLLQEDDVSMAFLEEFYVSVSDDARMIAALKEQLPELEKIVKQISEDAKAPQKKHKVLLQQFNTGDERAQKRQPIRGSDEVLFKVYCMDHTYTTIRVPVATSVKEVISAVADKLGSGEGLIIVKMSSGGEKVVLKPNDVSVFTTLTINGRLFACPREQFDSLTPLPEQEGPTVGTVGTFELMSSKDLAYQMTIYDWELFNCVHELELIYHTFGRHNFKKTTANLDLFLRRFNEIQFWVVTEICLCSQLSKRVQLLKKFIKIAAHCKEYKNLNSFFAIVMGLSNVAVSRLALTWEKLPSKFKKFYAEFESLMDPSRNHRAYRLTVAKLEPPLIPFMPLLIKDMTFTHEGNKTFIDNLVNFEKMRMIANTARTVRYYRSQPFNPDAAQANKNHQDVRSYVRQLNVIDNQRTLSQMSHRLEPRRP

protein kinase A (PKA) = conditions: Laudette et al. 2019; cited from earlier work
[9] = tested on: myocardial I/R injury and chronic β-AR activation; conditions: Laudette et al. 2019; cited from earlier work
[10] = prevents its use for in vivo applications; cited from earlier work
[11] = BLM-challenged mice, 10 mg/kg i.p. every alternate day for 2 weeks
[12] = BLM+AM-001 vs BLM+vehicle, WT mice

With `Nc1c(C(=O)Nc2ccc(F)cc2)sc2nc(-c3cccs3)cc(-c3ccccc3)c12` [AM-001, 3-amino-N-(4-fluorophenyl)-4-phenyl-6-(thiophen-2-yl)thieno[2,3-b]pyridine-2-carboxamide] the “proliferation of NHLFs (BrdU)” value [1] was “inhibited”, the “mRNA expression of fibrosis markers (COL1, COL3, CTGF, TGFβ) induced by TGFβ” value [2] was “impaired the upregulation” and the “right ventricular systolic pressure (RVSP)” value ([3]; BLM 4 U/kg intratracheal, vs control group) was “reduction”. The “RV hypertrophy (Fulton Index)” value ([3]; BLM-challenged mice) was “significantly decreased”, the “pulmonary vascular remodeling (medial thickness of distal pulmonary arteries)” value ([4]; BLM mice, vs vehicle-treated BLM mice) was “markedly diminished” and the “cardiomyocyte size in RV (WGA staining)” value [4, 11] was “reduction”. The “interstitial and perivascular fibrosis (Masson's trichrome)” value ([4]; BLM-challenged mice, 10 mg/kg i.p. every alternate day for 2 weeks, vs vehicle) was “significantly decreased”, the “FGFR1 mRNA level” value [5, 12] was “significantly decreasing” and the “TNC mRNA level” value [5, 12] was “trend decrease”. For the same compound, the “upregulation of fibrosis and hypertrophic gene markers (ANP, BNP, β-MHC) in RV” value ([5]; BLM-challenged mice, RV tissues) was “compromised”, the “COLI mRNA level in lung samples” value [5, 11] was “markedly reduced” and the “COLIII mRNA level in lung samples” value [5, 11] was “markedly reduced”. The “CTGF mRNA level in lung samples” value [5, 11] was “markedly reduced”, the “TGFβ mRNA level in lung samples” value [5, 11] was “markedly reduced” and the “IPF fibroblasts proliferation (BrdU)” value (IPF fibroblasts [6]) was “decrease”. The “FOXO3 mRNA expression” value (IPF fibroblasts [7]) was “restored”, the “IL-6 mRNA expression” value (IPF fibroblasts [7]) was “attenuates” and the “α-SMA mRNA expression” value (IPF fibroblasts [7]) was “attenuates”. The “phosphorylation of AKT” value (IPF fibroblasts [8]) was “decreased”, the “phosphorylation of SMAD2/3” value (IPF fibroblasts [8]) was “decreased” and the “phosphorylation of STAT3” value (IPF fibroblasts [8]) was “decreased”. The “inhibitory activity toward Epac1” value (Epac1) was “selective inhibitory activity”, the “antagonist effect on Epac2” value (Epac2) was “no antagonist effect” and the “antagonist effect on protein kinase A (PKA) activity” value (protein kinase A (PKA)) was “no antagonist effect”. For the same compound, the “cardioprotection against myocardial I/R injury and detrimental effects of chronic β-AR activation” value [9] was “cardioprotective properties”.
In the case of `CC1CCc2c(cc(Br)c(F)c2Br)N1C=O` (stereo not shown) [CE3F4], the “proliferation of NHLFs (BrdU)” value [1] is listed as “significantly decreased”, the “mRNA expression of fibrosis markers (COL1, COL3, CTGF, TGFβ) induced by TGFβ” value [2] is listed as “impaired the induction” and the biodisponibility [10] is listed as “low”.
